Measurements taken from patent US6649595B2, “Regulation of biological events using novel compounds” (ARIAD Gene Therapeutics, Inc., priority 1995, dated 2003).
Read-outs that look alike come from different tables or passages of the source.

Molecular target: T1, FKBPwt (Homo sapiens, UniProt P62942)
T1 construct: made in house
Assay: Competitive fluorescence polarization (FP) binding assay of rapalogs to FKBP
Conditions: for fold loss in affinity (vs rapamycin): C24 analogs

[1] = =IC50/IC50 of rapamycin, Table 4
[2] = rapamycin C24 analogs, Table 4, read-out: FKBPwt FP binding assay IC50
[3] = =IC50/IC50 of rapamycin, C7 rapalogs
[4] = C7 rapalogs, read-out: FKBPwt FP binding assay IC50
[5] = FKBPwt FP binding assay IC50 (nM), C7 rapalogs
[6] = FKBPwt FP binding assay IC50 (nM)

T1 sequence (P62942 whole entry): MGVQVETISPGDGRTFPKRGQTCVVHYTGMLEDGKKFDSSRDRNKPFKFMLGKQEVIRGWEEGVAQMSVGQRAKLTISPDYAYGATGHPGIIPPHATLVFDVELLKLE
Procedure: Serial 10-fold dilutions of each analog were prepared in 100% ethanol in glass vials and stored on ice. All other manipulations were performed at room temperature. […] Finally, a probe solution was prepared containing 10 nM AP1491 in 0.1% ethanol/FP buffer, and 100 μl added to each well with mixing.
The plates were stored covered in the dark for approximately 30 min to permit equilibration and then the fluorescence polarization of the sample in each well read on a Jolley FPM-2 FP plate reader (Jolley Consulting and Research, Inc., Grayslake, Ill.) in accordance with the manufacturer's recommendations. The mean polarization (mP units)
for each competitor concentration was usually converted to % total binding by reference to the control values and plotted (y) vs. log molar final concentration of competitor (x). Non-linear least square analysis was used to fit the curve and extract the IC50 using the following equation:
y=M1+(M4−M1)/(1+exp(M2*(M3−x)))
where M3 is the IC50. For incomplete curves the IC50 was determined by interpolation.

SMILES: CON=C1CC(C(C)CC2CCC(O)C(OC)C2)OC(=O)C2CCCCN2C(=O)C(=O)C2(O)OC(CCC2C)CC(OC)C(C)=CC=CC=CC(C)CC(C)C(=O)C(OC)C(O)C(C)=CC1C (single isomer, unassigned) [Compound 6, Rapamycin (E and Z)-24-(O-methyloxime)]
- fold loss in affinity (vs rapamycin) [1]: 190
- IC50 [2]: 438 nM

SMILES: COC1CC2CCC(C)C(O)(O2)C(=O)C(=O)N2CCCCC2C(=O)OC(C(C)CC2CCC(O)C(OC)C2)CC(=NOCC(=O)O)C(C)C=C(C)C(O)C(OC)C(=O)C(C)CC(C)C=CC=CC=C1C (single isomer, unassigned) [Compound 13, Rapamycin (E and Z)-24-(O-carboxymethyloxime)]
- fold loss in affinity (vs rapamycin) [1]: 3461
- IC50 [2]: 7960 nM

SMILES: COC1CC2CCC(C)C(O)(O2)C(=O)C(=O)N2CCCCC2C(=O)OC(C(C)CC2CCC(O)C(OC)C2)CC(=NOCC(=O)O)C(C)C=C(C)C(O)C(OC)C(=O)C(C)CC(C)C=CC=CC=C1C (single isomer, unassigned) [Compound 14, Rapamycin (E and Z)-24-(O-carboxymethyloxime)]
- fold loss in affinity (vs rapamycin) [1]: 1022
- IC50 [2]: 2350 nM

SMILES: COC1CC2CCC(C)C(O)(O2)C(=O)C(=O)N2CCCCC2C(=O)OC(C(C)CC2CCC(O)C(OC)C2)CC(=NOCC(N)=O)C(C)C=C(C)C(O)C(OC)C(=O)C(C)CC(C)C=CC=CC=C1C (single isomer, unassigned) [Compound 15, Rapamycin (E and Z)-24-(O-carboxamidomethyloxime)]
- fold loss in affinity (vs rapamycin) [1]: 500
- IC50 [2]: 1150 nM

SMILES: COC1CC2CCC(C)C(O)(O2)C(=O)C(=O)N2CCCCC2C(=O)OC(C(C)CC2CCC(O)C(OC)C2)CC(=NOCC(N)=O)C(C)C=C(C)C(O)C(OC)C(=O)C(C)CC(C)C=CC=CC=C1C (single isomer, unassigned) [Compound 16, Rapamycin (E and Z)-24-(O-carboxamidomethyloxime)]
- fold loss in affinity (vs rapamycin) [1]: 88.7
- IC50 [2]: 204 nM

SMILES: COc1ccc(C2CC3CCC(C)C(O)(O3)C(=O)C(=O)N3CCCCC3C(=O)OC(C(C)CC3CCC(O)C(OC)C3)CC(=O)C(C)C=C(C)C(O)C(OC)C(=O)C(C)CC(C)C=CC=CC=C2C)c(OC)c1 (single isomer, unassigned) [Compound 42]
- fold loss in affinity (cf rapamycin) [3]: 1.0
- IC50 [4]: 2.2 nM

SMILES: COc1ccc(C2CC3CCC(C)C(O)(O3)C(=O)C(=O)N3CCCCC3C(=O)OC(C(C)CC3CCC(O)C(OC)C3)CC(=O)C(C)C=C(C)C(O)C(OC)C(=O)C(C)CC(C)C=CC=CC=C2C)c(OC)c1 (single isomer, unassigned) [Compound 43]
- fold loss in affinity (cf rapamycin) [3]: 8.7
- IC50 [4]: 20 nM

SMILES: CCO/N=C1/C[C@@H]([C@H](C)C[C@@H]2CC[C@@H](O)[C@H](OC)C2)OC(=O)[C@@H]2CCCCN2C(=O)C(=O)[C@]2(O)O[C@@H](CC[C@H]2C)C[C@H](OC)/C(C)=C/C=C/C=C/[C@@H](C)C[C@@H](C)C(=O)[C@H](OC)[C@H](O)/C(C)=C/[C@H]1C [Compound 7, Rapamycin (E and Z)-24-(O-ethyloxime)]
- fold loss in affinity (vs rapamycin) [1]: 1287
- IC50 [2]: 2960 nM

SMILES: COC1CC2CCC(C)C(O)(O2)C(=O)C(=O)N2CCCCC2C(=O)OC(C(C)CC2CCC(O)C(OC)C2)CC(=NOCC(C)C)C(C)C=C(C)C(O)C(OC)C(=O)C(C)CC(C)C=CC=CC=C1C (centres unmarked) [Compound 10, Rapamycin (E and Z)-24-(O-isobutyloxime)]
- fold loss in affinity (vs rapamycin) [1]: 890

SMILES: CO[C@H]1C[C@@H]2CC[C@@H](C)[C@@](O)(O2)C(=O)C(=O)N2CCCC[C@H]2C(=O)O[C@H]([C@H](C)C[C@@H]2CC[C@@H](O)[C@H](OC)C2)C/C(=N\OCc2ccccc2)[C@H](C)/C=C(\C)[C@@H](O)[C@@H](OC)C(=O)[C@H](C)C[C@H](C)/C=C/C=C/C=C/1C [Compound 12, apamycin (E and Z)-24-(O-benzyloxime)]
- fold loss in affinity (vs rapamycin) [1]: 616
- IC50 [2]: 1420 nM

SMILES: COC1CC2CCC(C)C(O)(O2)C(=O)C(=O)N2CCCCC2C(=O)OC(C(C)CC2CCC(O)C(OC)C2)C/C(=N/O)C(C)C=C(C)C(O)C(OC)C(=O)C(C)CC(C)C=CC=CC=C1C (centres unmarked) [Compound 17]
- fold loss in affinity (vs rapamycin) [1]: 269
- IC50 [2]: 618 nM

SMILES: COC1CC2CCC(C)C(O)(O2)C(=O)C(=O)N2CCCCC2C(=O)OC(C(C)CC2CCC(O)C(OC)C2)C/C(=N\O)C(C)C=C(C)C(O)C(OC)C(=O)C(C)CC(C)C=CC=CC=C1C (centres unmarked) [Compound 18]
- fold loss in affinity (vs rapamycin) [1]: 25.7
- IC50 [2]: 59.1 nM

SMILES: COC1CC2CCC(C)C(O)(O2)C(=O)C(=O)N2CCCCC2C(=O)OC(C(C)CC2CCC(O)C(OC)C2)C/C(=N/OC(C)(C)C)C(C)C=C(C)C(O)C(OC)C(=O)C(C)CC(C)C=CC=CC=C1C (centres unmarked) [Compound 19]
- fold loss in affinity (vs rapamycin) [1]: >13043
- IC50 [2]: > 30000 nM

SMILES: COC1CC2CCC(C)C(O)(O2)C(=O)C(=O)N2CCCCC2C(=O)OC(C(C)CC2CCC(O)C(OC)C2)C/C(=N\OC(C)(C)C)C(C)C=C(C)C(O)C(OC)C(=O)C(C)CC(C)C=CC=CC=C1C (centres unmarked) [Compound 20]
- fold loss in affinity (vs rapamycin) [1]: 1046
- IC50 [2]: 2410 nM

SMILES: CCOC1C[C@@H]2CC[C@@H](C)[C@@](O)(O2)C(=O)C(=O)N2CCCC[C@H]2C(=O)OC([C@H](C)C[C@@H]2CC[C@@H](O)[C@H](OC)C2)CC(=O)[C@H](C)/C=C(\C)[C@@H](O)[C@@H](OC)C(=O)[C@H](C)C[C@H](C)/C=C/C=C/C=C/1C (some centres unmarked) [Compound 27]
- fold loss in affinity (cf rapamycin) [3]: 1.1
- IC50 [4]: 2.6 nM

SMILES: CCOC1C[C@@H]2CC[C@@H](C)[C@@](O)(O2)C(=O)C(=O)N2CCCC[C@H]2C(=O)OC([C@H](C)C[C@@H]2CC[C@@H](O)[C@H](OC)C2)CC(=O)[C@H](C)/C=C(\C)[C@@H](O)[C@@H](OC)C(=O)[C@H](C)C[C@H](C)/C=C/C=C/C=C/1C (some centres unmarked) [Compound 28]
- fold loss in affinity (cf rapamycin) [3]: 1.6
- IC50 [4]: 3.7 nM

SMILES: CO[C@@H]1C[C@H](C[C@@H](C)[C@@H]2CC(=O)[C@H](C)/C=C(\C)[C@@H](O)[C@@H](OC)C(=O)[C@H](C)C[C@H](C)/C=C/C=C/C=C(\C)[C@@H](OC(C)C)C[C@@H]3CC[C@@H](C)[C@@](O)(O3)C(=O)C(=O)N3CCCC[C@H]3C(=O)O2)CC[C@H]1O [Compound 29]
- fold loss in affinity (cf rapamycin) [3]: 1.0
- IC50 [4]: 2.2 nM

SMILES: COC(=O)N[C@@H]1C[C@@H]2CC[C@@H](C)[C@@](O)(O2)C(=O)C(=O)N2CCCC[C@H]2C(=O)O[C@H]([C@H](C)C[C@@H]2CC[C@@H](O)[C@H](OC)C2)CC(=O)[C@H](C)/C=C(\C)[C@@H](O)[C@@H](OC)C(=O)[C@H](C)C[C@H](C)/C=C/C=C/C=C/1C [Compound 31]
- fold loss in affinity (cf rapamycin) [3]: 1.1
- IC50 [4]: 2.6 nM

SMILES: COC(=O)N[C@H]1C[C@@H]2CC[C@@H](C)[C@@](O)(O2)C(=O)C(=O)N2CCCC[C@H]2C(=O)O[C@H]([C@H](C)C[C@@H]2CC[C@@H](O)[C@H](OC)C2)CC(=O)[C@H](C)/C=C(\C)[C@@H](O)[C@@H](OC)C(=O)[C@H](C)C[C@H](C)/C=C/C=C/C=C/1C [Compound 32]
- fold loss in affinity (cf rapamycin) [3]: 1.9
- IC50 [4]: 4.3 nM

SMILES: CO[C@@H]1C[C@H](C[C@@H](C)[C@@H]2CC(=O)[C@H](C)/C=C(\C)[C@@H](O)[C@@H](OC)C(=O)[C@H](C)C[C@H](C)/C=C/C=C/C=C(\C)[C@@H](NS(C)(=O)=O)C[C@@H]3CC[C@@H](C)[C@@](O)(O3)C(=O)C(=O)N3CCCC[C@H]3C(=O)O2)CC[C@H]1O [Compound 33]
- fold loss in affinity (cf rapamycin) [3]: 1.1
- IC50 [4]: 2.5 nM

SMILES: CO[C@@H]1C[C@H](C[C@@H](C)[C@@H]2CC(=O)[C@H](C)/C=C(\C)[C@@H](O)[C@@H](OC)C(=O)[C@H](C)C[C@H](C)/C=C/C=C/C=C(\C)[C@@H](c3ccco3)C[C@@H]3CC[C@@H](C)[C@@](O)(O3)C(=O)C(=O)N3CCCC[C@H]3C(=O)O2)CC[C@H]1O [Compound 34]
- fold loss in affinity (cf rapamycin) [3]: 12
- IC50 [5]: 28 nM

SMILES: CO[C@@H]1C[C@H](C[C@@H](C)[C@@H]2CC(=O)[C@H](C)/C=C(\C)[C@@H](O)[C@@H](OC)C(=O)[C@H](C)C[C@H](C)/C=C/C=C/C=C(\C)[C@H](c3ccco3)C[C@@H]3CC[C@@H](C)[C@@](O)(O3)C(=O)C(=O)N3CCCC[C@H]3C(=O)O2)CC[C@H]1O [Compound 35]
- fold loss in affinity (cf rapamycin) [3]: 13
- IC50 [5]: 29 nM

SMILES: CO[C@@H]1C[C@H](C[C@@H](C)[C@@H]2CC(=O)[C@H](C)/C=C(\C)[C@@H](O)[C@@H](OC)C(=O)[C@H](C)C[C@H](C)/C=C/C=C/C=C(\C)[C@@H](c3ccc(C)s3)C[C@@H]3CC[C@@H](C)[C@@](O)(O3)C(=O)C(=O)N3CCCC[C@H]3C(=O)O2)CC[C@H]1O [Compound 36]
- fold loss in affinity (cf rapamycin): 1.6
- IC50 [6]: 3.7 nM

SMILES: CO[C@@H]1C[C@H](C[C@@H](C)[C@@H]2CC(=O)[C@H](C)/C=C(\C)[C@@H](O)[C@@H](OC)C(=O)[C@H](C)C[C@H](C)/C=C/C=C/C=C(\C)[C@H](c3ccc(C)s3)C[C@@H]3CC[C@@H](C)[C@@](O)(O3)C(=O)C(=O)N3CCCC[C@H]3C(=O)O2)CC[C@H]1O [Compound 37]
- fold loss in affinity (cf rapamycin): 1.9
- IC50 [6]: 4.3 nM

SMILES: CCc1ccc([C@H]2C[C@@H]3CC[C@@H](C)[C@@](O)(O3)C(=O)C(=O)N3CCCC[C@H]3C(=O)O[C@H]([C@H](C)C[C@@H]3CC[C@@H](O)[C@H](OC)C3)CC(=O)[C@H](C)/C=C(\C)[C@@H](O)[C@@H](OC)C(=O)[C@H](C)C[C@H](C)/C=C/C=C/C=C/2C)s1 [Compound 38]
- fold loss in affinity (cf rapamycin) [3]: 1.1
- IC50 [4]: 2.5 nM

SMILES: CCc1ccc([C@@H]2C[C@@H]3CC[C@@H](C)[C@@](O)(O3)C(=O)C(=O)N3CCCC[C@H]3C(=O)O[C@H]([C@H](C)C[C@@H]3CC[C@@H](O)[C@H](OC)C3)CC(=O)[C@H](C)/C=C(\C)[C@@H](O)[C@@H](OC)C(=O)[C@H](C)C[C@H](C)/C=C/C=C/C=C/2C)s1 [Compound 39]
- fold loss in affinity (cf rapamycin) [3]: 1.0
- IC50 [4]: 2.4 nM

SMILES: CO[C@@H]1C[C@H](C[C@@H](C)[C@@H]2CC(=O)[C@H](C)/C=C(\C)[C@@H](O)[C@@H](OC)C(=O)[C@H](C)C[C@H](C)/C=C/C=C/C=C(\C)[C@H](c3ccc(C(C)(C)C)s3)C[C@@H]3CC[C@@H](C)[C@@](O)(O3)C(=O)C(=O)N3CCCC[C@H]3C(=O)O2)CC[C@H]1O [Compound 40]
- fold loss in affinity (cf rapamycin) [3]: 1.5
- IC50 [4]: 3.4 nM
